Read-outs that look alike come from different tables or passages of the source.
How the values were obtained:
[1] = biological target: NMDA receptor glycine B site (Rattus norvegicus, UniProt P35439); experiment: Calcium FLIPR studies, rat cortical neurons (NMDA/D-Serine induced intracellular calcium); type: cell-based; design: Primary neurons are prepared from cortices of embryonal rats at day 17 of pregnancy; endogenous in cells; host or cells: primary rat cortical neurons (E17, 11-13 DIV)
Description: Antagonistic potencies of the test compounds are functionally evaluated using electrophysiological whole cell patch-clamp recordings and/or fluorometric intracellular Ca^2+-imaging (FLIPR) screens.
Sprague-Dawley rat embryos (E 17) are decapitated and neocortices are dissected, trypsinized and carefully triturated. The cell suspension is plated on poly-D-lysine pre-coated 96-well Plates (Greiner, Frickenhausen, Germany) at a cell density of 55.000 cells/well. The neurons are cultivated in Neurobasal media containing B27-Supplement and […] L-Glutamine (Biochrom) at 37° C. in a humidified atmosphere of 5% CO2/95% air. Medium is exchanged completely at day 4 and to 50% on day 7. At the time of experiments neurons are 11-13 days in vitro.
The increase of intracellular calcium after stimulation with 30 μM NMDA and 1 μM D-Serine is measured using the fluorometric imaging plate reader (FLIPR) and the Calcium-4-Kit (both Molecular Devices, Ismaning, Germany). Prior to addition of agonist or antagonist (5 different concentrations, n=5) the medium is aspirated and cells are washed once before loading with 150 μL of loading buffer (1 h at room temperature), consisting of Ca-4 sensitive dye reconstituted in extracellular bath solution, pH 7.3. Subsequently, plates are transferred to FLIPR to detect increases in intracellular calcium after the addition of agonist, measured as relative fluorescence units (RFU). Antagonists are pre-incubated with the cells for 10 min at room temperature before the addition of the agonist and co-agonist.
The fluorescence signal increase after addition of agonist reflects the increase of intracellular calcium. Inconsistencies in the amount of cells per well are normalised by using the spatial uniformity correction of the FLIPR software (Screenworks, Molecular Devices). The mean of replicated temporal data (n=5) is calculated and used for graphical representation. For the evaluation of the antagonistic potency, the calcium changes in response to different concentrations of antagonist are determined using an area under the curve (AUC) calculation. All responses (RFU-values) are determined as percentage of control (=maximum response at 30 μM NMDA and 1 μM D-Serine). IC50 values are calculated according the four parameter logistic equation using GraFit (Erithacus Software).

[2] = biological target: T1, glycine binding pocket of the NMDA receptor (Rattus norvegicus, UniProt P35439); experiment: [3H]MDL-105,519 displacement studies (rat cortical membranes)
T1 construct: For isolation of the cell membranes, the cortices are homogenized; from tissue; host or cells: rat cerebral cortex membranes (male Sprague-Dawley)
Description: Anaesthetised male Sprague-Dawley rats (200-250 g, Janvier, Le Genest-Isle, France) are decapitated and their brains removed rapidly. […] For isolation of the cell membranes, the cortices are homogenized in 20 volumes of ice-cold 0.32 M sucrose (Sigma-Aldrich, Taufkirchen, Germany) using a glass-Teflon homogenizer. The homogenate is centrifuged at 1000×g for 10 minutes, the pellet is discarded and the supernatant centrifuged at 20,000×g for 20 minutes. The resulting pellet is re-suspended in 20 volumes of distilled water and centrifuged for 20 minutes at 8000×g. The supernatant and the buffy coat are then centrifuged three times (48,000×g for 20 minutes) in the presence of 50 mM Tris-HCl, pH 8.0 (assay buffer). All centrifugation steps are carried out at 4° C. After resuspension in 5 volumes of 50 mM Tris-HCl, pH 7.5, the membrane suspension is frozen rapidly at −80° C. On the day of assay, the membranes are thawed and washed four times by resuspension in 50 mM Tris-HCl, pH 7.5, and centrifugation at 48,000×g for 20 minutes. The final pellet is suspended in assay buffer. […] The final protein concentration used for our studies is 400 μg/ml.
A robotic system designed for binding assays (Tecan Deutschland GmbH, Crailsheim, Germany) is loaded with the membrane solution, solutions for bound control (buffer/DMSO 20%), unlabeled glycine (1 mM) for evaluation of non-specific binding, all compounds to be tested (at 20-fold concentrations), radioligand and respective 96-well plates.
The protein/receptor concentration is held constant whereas the amount of specific bound radioligand is determined using increasing concentrations of ligand.
Firstly, the assay plates are loaded with membrane solution and are shaken at 4° C. The mother plates are then prepared by pipetting the compounds into assay buffer/20% DMSO to obtain the desired final concentrations (dose response curve with five different concentrations, e.g. 10, 3, 1, 0.3, and 0.1 μM). After transferring radioligand into the assay plates, the compounds are added (including the bound and the non-specific binding control). The final DMSO concentration is 1%. The assay plates are incubated and shaken at 4° C. for 1 h, before the mixture is exhausted as rapidly as possible via a vacuum manifold using the Multiscreen HTS glass fibre (type B) filter plates (Millipore, Schwalbach, Germany) under a constant vacuum of 450 mbar. The membranes are washed four times with cold assay buffer ([…]). 50 μL of Ultima Gold scintillation cocktail (PerkinElmer, Rodgau-Jügesheim, Germany) is added to the wet filter plates and incubated at room temperature overnight before counting the disintegration per minutes using a liquid scintillation counter (MicroBeta, PerkinElmer, Rodgau-Jügesheim, Germany).
The residual radioactivity after displacement of the test compound (n=5) is then corrected with respect to the set controls.

[3] = rat cortical neurons, stimulation with 30 μM NMDA and 1 μM D-Serine, antagonist pre-incubated 10 min, read-out: NMDA-FLIPR-rCTX-NAM - IC50
[4] = displacement of 2 nM [3H]-MDL-105,519, rat cortical membranes, read-out: NMDA-MDL 105519-r-CTX - IC50

| Compound | IC50 [1, 3] | IC50 [2, 4] | IC50 [1] | IC50 [2] |
| --- | --- | --- | --- | --- |
| O=C(O)COc1cccc(NC(=O)COc2cc(C(=O)O)cc3cc(Cl)cc(Cl)c23)c1 [Example 2, 4-[(3-Carboxymethoxyphenylcarbamoyl)-methoxy]-5,7-dichloronaphthalene-2-carboxylic acid] | 3.17 µM | 414 nM |  |  |
| CC(Oc1cc(C(=O)O)cc2cc(Cl)cc(Cl)c12)C(=O)Nc1ccc(CO)cc1 (stereo not drawn) [Example 16, 5,7-Dichloro-4-[1-(4-hydroxymethylphenylcarbamoyl)-ethoxy]-naphthalene-2-carboxylic acid] | 4.66 µM | 690 nM |  |  |
| CC(Oc1cc(C(=O)O)cc2cc(Cl)cc(Cl)c12)C(=O)Nc1ccccc1CO (stereo not drawn) [Example 17, 5,7-Dichloro-4-[1-(2-hydroxymethylphenylcarbamoyl)-ethoxy]-naphthalene-2-carboxylic acid] |  |  | 12.6 µM | 1190 nM |
| O=C(COc1cc(C(=O)O)cc2cc(Cl)cc(Cl)c12)NCc1cccc(CO)c1 [Example 22, 5,7-Dichloro-4-[(3-hydroxymethylbenzylcarbamoyl)-methoxy]-naphthalene-2-carboxylic acid] | 5.4 µM | 236 nM |  |  |
| CC(Oc1cc(C(=O)O)cc2cc(Cl)cc(Cl)c12)C(=O)Nc1cccc(CO)c1 (stereo not drawn) [Example 25, 5,7-Dichloro-4-[1-(3-hydroxymethylphenylcarbamoyl)-ethoxy]-naphthalene-2-carboxylic acid] | 7.32 µM | 1030 nM |  |  |
| O=C(COc1cc(C(=O)O)cc2cc(Cl)cc(Cl)c12)NC(C(=O)O)c1ccccc1 (stereo not drawn) [Example 27, 4-{[(Carboxyphenylmethyl)-carbamoyl]-methoxy}-5,7-dichloronaphthalene-2-carboxylic acid] | 3.5 µM | 790 nM |  |  |
| CN(C(=O)COc1cc(C(=O)O)cc2cc(Cl)cc(Cl)c12)c1cccc(C(=O)O)c1 [Example 31, 4-{[(3-Carboxyphenyl)-methylcarbamoyl]-methoxy}-5,7-dichloronaphthalene-2-carboxylic acid] | 4.75 µM | 1090 nM |  |  |
| O=C(O)c1cc(OC(C(=O)O)c2ccccc2)c2c(Cl)cc(Cl)cc2c1 (stereo not drawn) [Example 32, 4-(Carboxyphenylmethoxy)-5,7-dichloronaphthalene-2-carboxylic acid] | 6.49 µM | 1510 nM |  |  |
| Cc1ccc(S(=O)(=O)NC(=O)COc2cc(C(=O)O)cc3cc(Cl)cc(Cl)c23)cc1 [Example 36, 5,7-Dichloro-4-[2-oxo-2-(toluene-4-sulfonylamino)-ethoxy]-naphthalene-2-carboxylic acid] | 5.47 µM | 1520 nM |  |  |
| O=C(O)c1cc(OCC(=O)N2Cc3ccccc3CC2C(=O)O)c2c(Cl)cc(Cl)cc2c1 (stereo not drawn) [Example 38, 2-[2-(3-Carboxy-6,8-dichloronaphthalen-1-yloxy)-acetyl]-1,2,3,4-tetrahydroisoquinoline-3-carboxylic acid] | 10.6 µM | 1350 nM |  |  |
| O=C(O)Cc1ccc(NC(=O)COc2cc(C(=O)O)cc3cc(Cl)cc(Cl)c23)cn1 [Example 46, 4-[(6-Carboxymethyl-pyridin-3-ylcarbamoyl)-methoxy]-5,7-dichloro-naphthalene-2-carboxylic acid] | 9.41 µM | 1230 nM |  |  |
| O=C(O)c1cc(OCC(=O)N2CCc3ccccc3C2)c2c(Cl)cc(Cl)cc2c1 [Example 52, 5,7-Dichloro-4-[2-(3,4-dihydro-1H-isoquinolin-2-yl)-2-oxo-ethoxy]-naphthalene-2-carboxylic acid] | 7.35 µM | 2290 nM |  |  |
| O=C(COc1cc(C(=O)O)cc2cc(Cl)cc(Cl)c12)Nc1nnn[nH]1 [Example 64, 5,7-Dichloro-4-[(1H-tetrazol-5-ylcarbamoyl)-methoxy]-naphthalene-2-carboxylic acid] | 9.28 µM | 1260 nM |  |  |
| O=C(O)c1cc(OC2CCN(c3ccccc3)C2=O)c2c(Cl)cc(Cl)cc2c1 (stereo not drawn) [Example 65, 5,7-Dichloro-4-(2-oxo-1-phenyl-pyrrolidin-3-yloxy)-naphthalene-2-carboxylic acid] | 7.54 µM | 1390 nM |  |  |
| COCC(Oc1cc(C(=O)O)cc2cc(Cl)cc(Cl)c12)C(=O)Nc1ccccc1 (stereo not drawn) [Example 67, 5,7-Dichloro-4-(2-methoxy-1-phenylcarbamoyl-ethoxy)-naphthalene-2-carboxylic acid] | 6.49 µM | 1370 nM |  |  |
| COc1ccccc1N1CCC(Oc2cc(C(=O)O)cc3cc(Cl)cc(Cl)c23)C1=O (stereo not drawn) [Example 75, 5,7-Dichloro-4-[1-(2-methoxy-phenyl)-2-oxo-pyrrolidin-3-yloxy]-naphthalene-2-carboxylic acid] | 4.96 µM | 1270 nM |  |  |
| NCc1ccc(OCC(=O)O)c(NC(=O)COc2cc(C(=O)O)cc3cc(Cl)cc(Cl)c23)c1 [Example 79, 4-[(5-Aminomethyl-2-carboxymethoxy-phenylcarbamoyl)-methoxy]-5,7-dichloro-naphthalene-2-carboxylic acid] | 1.65 µM | 89 nM |  |  |
| CC(C)(Oc1ccccc1NC(=O)COc1cc(C(=O)O)cc2cc(Cl)cc(Cl)c12)C(=O)O [Example 81, 4-{[2-(1-Carboxy-1-methyl-ethoxy)-phenylcarbamoyl]-methoxy}-5,7-dichloro-naphthalene-2-carboxylic acid] | 11.3 µM | 1190 nM |  |  |
| O=C(COc1cc(C(=O)O)cc2cc(Cl)cc(Cl)c12)Nc1ccc(Cc2nnn[nH]2)cc1 [Example 86, 5,7-Dichloro-4-{[4-(1H-tetrazol-5-ylmethyl)-phenylcarbamoyl]-methoxy}-naphthalene-2-carboxylic acid] | 5.75 µM | 1840 nM |  |  |
| O=C(COc1cc(C(=O)O)cc2cc(Cl)cc(Cl)c12)Nc1ccc(OCc2nnn[nH]2)cc1 [Example 88, 5,7-Dichloro-4-{[4-(1H-tetrazol-5-ylmethoxy)-phenylcarbamoyl]-methoxy}-naphthalene-2-carboxylic acid] | 3.8 µM | 1540 nM |  |  |
| O=C(COc1cc(C(=O)O)cc2cc(Cl)cc(Cl)c12)Nc1cccnc1 [Example 127, 5,7-Dichloro-4-(pyridin-3-ylcarbamoylmethoxy)-naphthalene-2-carboxylic acid] |  | 499 nM |  |  |
| O=C(COc1cc(C(=O)O)cc2cc(Cl)cc(Cl)c12)Nc1ccccn1 [Example 129, 5,7-Dichloro-4-(pyridin-2-ylcarbamoylmethoxy)-naphthalene-2-carboxylic acid] |  | 980 nM |  |  |
